Values of other authors in patent US20070259820A1, “METHODS AND REAGENTS FOR ACTIVATING HEAT SHOCK PROTEIN 70” (THE REGENTS OF THE UNIVERSITY OF MICHIGAN, priority 2006, published 2007).

Assays:
Hsp70 [1] = conditions: prior-art statement in background
Hsp70 [2] = conditions: prior-art statement in background; remark: listed apart in the source

effect on Hsp70's ATPase activity (Hsp70 [1])	binding to Hsp70 in "pull-down" studies (Hsp70 [2])	SMILES
stimulate Hsp70's ATPase activity		N=C(N)NCCCCCCC(=O)NC(O)C(=O)NCCCCNCCCN (centres unmarked) [15-deoxyspergualin]
	bind Hsp70	NCCCNCCCCNC(=O)[C@H](O)NC(=O)C[C@@H](O)CCCCN=C(N)N [spergaulin]
